Data taken from ChEMBL document CHEMBL4340508, “Synthesis and evaluation of tetrahydroisoquinoline-benzimidazole hybrids as multifunctional agents for the treatment of Alzheimer's disease” (Eur J Med Chem, 2019).
Active and inactive are the calls of the source. No cut-off for these calls is given here.

Experiments:
[1] = target: Cholinesterase (Homo sapiens) (UniProt P06276); test: Inhibition of human serum BuChE at 10 uM using butyrylthiocholine chloride as substrate preincubated for 15 mins followed by substrate addition and measured at 1 min time interval by Ellman's method relative to control
[2] = target: Acetylcholinesterase (Homo sapiens) (UniProt P22303); test: Inhibition of human erythrocyte AChE at 10 uM using acetylthiocholine chloride as substrate preincubated for 15 mins followed by substrate addition and measured at 1 min time interval by Ellman's method relative to control
[3] = Permeability of the compound in PBS/EtOH at 100 ug/ml after 10 hrs by PAMPA-BBB assay; assay type: ADME; settings: read-out: permeability
BV-2 [4] = test: Antineuroinflammatory activity in mouse BV2 cells assessed as inhibition of LPS-induced nitric oxide production pretreated for 30 mins followed by LPS-stimulation for 24 hrs by Griess assay; assay type: functional, cell-based
Beta-secretase 1 = Beta-secretase 1 (Homo sapiens, UniProt P56817); test: Inhibition of recombinant human BACE1 preincubated with enzyme for 20 mins followed by addition of Rh-EVNLDAEFK-Quencher as substrate measured after 60 mins by FRET assay
HT-22 [5] = test: Neuroprotective activity against glutamate-induced cytotoxicity in mouse HT22 cells assessed as cell viability at 5 uM measured after 24 hrs by MTT assay (reference value: 30%); assay type: functional; settings: HT-22, 24 h, read-out: Activity
BV-2 [6] = test: Antineuroinflammatory activity in mouse BV2 cells assessed as decrease in LPS-induced secretion of IL-1beta incubated for 30 mins followed by LPS stimulation for 16 hrs by ELISA; assay type: functional, cell-based
BV-2 [7] = test: Antineuroinflammatory activity in mouse BV2 cells assessed as decrease in LPS-induced IL-1beta expression incubated for 30 mins followed by LPS stimulation for 12 hrs by qPCR method; assay type: functional, cell-based
HT-22 [8] = test: Neuroprotective activity against glutamate-induced intracellular oxidative stress in mouse HT22 cells assessed as inhibition of ROS production at 5 uM measured after 12 hrs by DCFH-DA probe based fluorescence method relative to control; assay type: functional, cell-based
BV-2 [9] = test: Antineuroinflammatory activity in mouse BV2 cells assessed as decrease in LPS-induced iNOS mRNA expression incubated for 30 mins followed by LPS stimulation for 12 hrs by qPCR method; assay type: functional, cell-based
BV-2 [10] = test: Antineuroinflammatory activity in mouse BV2 cells assessed as decrease in LPS-induced iNOS expression incubated for 30 mins followed by LPS stimulation for 16 hrs by Western blot analysis; assay type: functional, cell-based
BV-2 [11] = test: Antineuroinflammatory activity in mouse BV2 cells assessed as decrease in LPS-induced secretion of TNFalpha incubated for 30 mins followed by LPS stimulation for 16 hrs by ELISA; assay type: functional, cell-based
BV-2 [12] = test: Neuroprotective activity against glutamate-induced cell damage in […] assessed as change in cell morphology at 5 uM measured after 24 hrs; assay type: functional, cell-based
HT-22 [13] = test: Neuroprotective activity against glutamate-induced intracellular oxidative stress in mouse HT22 cells assessed as increase in GSH level at 5 uM measured after 12 hrs relative to control; assay type: functional, cell-based
BV-2 [14] = test: Antineuroinflammatory activity in mouse BV2 cells assessed as decrease in LPS-induced TNFalpha expression incubated for 30 mins followed by LPS stimulation for 12 hrs by qPCR method; assay type: functional, cell-based

Chain of Acetylcholinesterase (Homo sapiens) (P22303 whole entry): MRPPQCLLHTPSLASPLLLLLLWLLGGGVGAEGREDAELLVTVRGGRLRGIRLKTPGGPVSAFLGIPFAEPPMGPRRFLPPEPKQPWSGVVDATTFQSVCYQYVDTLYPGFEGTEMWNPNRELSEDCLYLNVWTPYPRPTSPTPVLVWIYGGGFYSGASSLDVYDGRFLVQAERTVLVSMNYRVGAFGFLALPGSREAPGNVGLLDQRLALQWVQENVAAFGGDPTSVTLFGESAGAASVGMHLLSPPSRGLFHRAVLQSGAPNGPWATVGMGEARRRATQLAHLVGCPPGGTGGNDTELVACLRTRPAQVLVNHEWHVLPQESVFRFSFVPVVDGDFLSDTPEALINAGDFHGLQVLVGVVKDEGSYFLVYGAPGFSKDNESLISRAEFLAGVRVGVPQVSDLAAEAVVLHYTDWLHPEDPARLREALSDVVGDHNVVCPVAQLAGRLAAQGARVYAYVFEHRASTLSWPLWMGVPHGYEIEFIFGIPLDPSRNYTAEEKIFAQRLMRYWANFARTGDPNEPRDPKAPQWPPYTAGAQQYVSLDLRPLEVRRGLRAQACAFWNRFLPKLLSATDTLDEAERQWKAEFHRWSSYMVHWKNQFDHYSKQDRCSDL
Chain of Cholinesterase (Homo sapiens) (P06276 whole entry): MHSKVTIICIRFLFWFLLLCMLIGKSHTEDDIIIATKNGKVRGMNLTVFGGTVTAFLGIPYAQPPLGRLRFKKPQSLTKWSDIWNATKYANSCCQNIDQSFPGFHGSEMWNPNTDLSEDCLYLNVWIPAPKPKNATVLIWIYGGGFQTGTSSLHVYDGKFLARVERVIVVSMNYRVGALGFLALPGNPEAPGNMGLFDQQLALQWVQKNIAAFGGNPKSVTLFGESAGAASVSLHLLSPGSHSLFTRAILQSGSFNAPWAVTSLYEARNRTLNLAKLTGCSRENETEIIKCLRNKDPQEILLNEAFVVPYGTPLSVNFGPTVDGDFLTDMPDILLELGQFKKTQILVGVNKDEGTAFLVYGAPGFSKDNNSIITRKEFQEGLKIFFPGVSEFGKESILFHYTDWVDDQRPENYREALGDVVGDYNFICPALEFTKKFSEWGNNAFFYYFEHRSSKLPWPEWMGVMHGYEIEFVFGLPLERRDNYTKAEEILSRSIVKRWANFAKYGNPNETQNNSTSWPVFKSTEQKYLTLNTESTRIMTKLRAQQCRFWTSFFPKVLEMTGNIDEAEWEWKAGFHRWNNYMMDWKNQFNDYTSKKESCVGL
Chain of Beta-secretase 1 (P56817 whole entry): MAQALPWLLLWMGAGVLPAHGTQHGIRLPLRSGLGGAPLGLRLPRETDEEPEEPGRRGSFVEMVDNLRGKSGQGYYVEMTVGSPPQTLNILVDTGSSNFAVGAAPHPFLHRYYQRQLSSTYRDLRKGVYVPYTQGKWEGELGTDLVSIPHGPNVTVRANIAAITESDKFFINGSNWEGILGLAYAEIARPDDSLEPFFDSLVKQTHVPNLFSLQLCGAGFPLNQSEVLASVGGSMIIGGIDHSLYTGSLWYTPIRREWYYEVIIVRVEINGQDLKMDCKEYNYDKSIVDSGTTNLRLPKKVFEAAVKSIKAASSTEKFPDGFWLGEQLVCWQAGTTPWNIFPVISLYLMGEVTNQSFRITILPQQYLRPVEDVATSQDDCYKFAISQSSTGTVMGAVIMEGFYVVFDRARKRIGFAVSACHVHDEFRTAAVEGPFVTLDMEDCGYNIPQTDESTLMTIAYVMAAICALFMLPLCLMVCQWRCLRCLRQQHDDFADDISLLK

| Compound | inhibition [1] | inhibition [2] | Papp at 10 h, 100 ug/ml [3] | IC50 (BV-2 [4]) | viability at 5 µM (HT-22 [5]) | other results |
| --- | --- | --- | --- | --- | --- | --- |
| FC(F)(F)c1ccc2nc(-c3cccc(N4CCc5ccccc5C4)c3)[nH]c2c1 | 11.3% | 11.9% | 8.7 ×10⁻⁶ cm/s | 7.72 µM | – | – |
| Clc1cc2nc(-c3cccc(N4CCc5ccccc5C4)c3)[nH]c2cc1Cl | 3.7% | 16.2% | 9.9 ×10⁻⁶ cm/s | 7.93 µM | – | – |
| Clc1ccc2nc(-c3cccc(N4CCc5ccccc5C4)n3)[nH]c2c1 | 19.8% | 24.3% | 16.7 ×10⁻⁶ cm/s | 6.94 µM | – | IC50 (Beta-secretase 1): 1800 nM |
| COc1ccc2c(c1)CCN(c1cccc(-c3nc4ccc(OC)cc4[nH]3)n1)C2 | 9.7% | 4.7% | 11.5 ×10⁻⁶ cm/s | > 10 µM | – | – |
| COc1ccc2c(c1)CCN(c1cccc(-c3nc4ccc(OC)cc4[nH]3)c1)C2 | 0.3% | 6% | 7.6 ×10⁻⁶ cm/s | > 10 µM | 93.1% | – |
| Cc1ccc2nc(-c3cccc(N4CCc5ccccc5C4)c3)[nH]c2c1 | 20.7% | 5% | 9.6 ×10⁻⁶ cm/s | 5.7 µM | – | – |
| FC(F)(F)c1ccc2nc(-c3cccc(N4CCc5ccccc5C4)n3)[nH]c2c1 | 18.6% | 20.4% | 5.4 ×10⁻⁶ cm/s | 9.33 µM | – | IC50 (Beta-secretase 1): 3600 nM |
| Fc1ccc2c(c1)CCN(c1cccc(-c3nc4ccc(F)cc4[nH]3)n1)C2 | 33.7% | 19.9% | 14 ×10⁻⁶ cm/s | 6.43 µM | 71.1% | – |
| COc1ccc2nc(-c3cccc(N4CCc5ccccc5C4)n3)[nH]c2c1 | 35.6% | 4.5% | 16.8 ×10⁻⁶ cm/s | 5.07 µM | 91.8% | Activity (BV-2 [6]): Dose-dependent effect; Activity (BV-2 [7]): Dose-dependent effect; inhibition (HT-22 [8]): Active; Activity (BV-2 [9]): Dose-dependent effect; Activity (BV-2 [10]): Dose-dependent effect; Activity (BV-2 [11]): Dose-dependent effect; Activity (BV-2 [12]): Active; Activity (HT-22 [13]): Active; Activity (BV-2 [14]): Dose-dependent effect |
| c1cc(-c2nc3ccccc3[nH]2)nc(N2CCc3ccccc3C2)c1 | 23.2% | 10.1% | 15.9 ×10⁻⁶ cm/s | 7.33 µM | 80.3% | – |
| CC(C)(C)c1ccc2nc(-c3cccc(N4CCc5ccccc5C4)n3)[nH]c2c1 | 3.8% | 24.6% | – | > 10 µM | – | – |
| Clc1ccc2nc(-c3cccc(N4CCc5ccccc5C4)c3)[nH]c2c1 | 27.6% | 3.4% | 4.9 ×10⁻⁶ cm/s | > 10 µM | 67.6% | IC50 (Beta-secretase 1): 1300 nM |
| Fc1ccc2nc(-c3cccc(N4CCc5ccccc5C4)n3)[nH]c2c1 | 24.2% | 6.6% | 14.5 ×10⁻⁶ cm/s | 5.7 µM | 67.8% | – |
| Fc1cc2nc(-c3cccc(N4CCc5ccccc5C4)n3)[nH]c2cc1F | 8.9% | 7.2% | 13.9 ×10⁻⁶ cm/s | 6.58 µM | – | – |
| Fc1ccc2nc(-c3cccc(N4CCc5ccccc5C4)c3)[nH]c2c1 | 17.1% | 9.5% | 12.6 ×10⁻⁶ cm/s | 5.42 µM | – | – |
| c1cc(-c2nc3ccccc3[nH]2)cc(N2CCc3ccccc3C2)c1 | 18.3% | 6.3% | 8.5 ×10⁻⁶ cm/s | 6.08 µM | – | – |
| Fc1cc2[nH]c(-c3cccc(N4CCc5ccccc5C4)c3)nc2cc1Cl | 0.5% | 10.9% | 10.1 ×10⁻⁶ cm/s | > 10 µM | 48.9% | – |
| Oc1ccc2nc(-c3cccc(N4CCc5ccccc5C4)c3)[nH]c2c1 | 6.8% | 11.2% | 8.6 ×10⁻⁶ cm/s | 5.95 µM | – | – |
| FC(F)(F)Oc1ccc2nc(-c3cccc(N4CCc5ccccc5C4)n3)[nH]c2c1 | 11.7% | 7.6% | 10 ×10⁻⁶ cm/s | 9.74 µM | 62.1% | IC50 (Beta-secretase 1): 1100 nM |
| COc1ccc2nc(-c3cccc(N4CCc5ccccc5C4)c3)[nH]c2c1 | 5.4% | 10.4% | 5.6 ×10⁻⁶ cm/s | 8.28 µM | – | – |
| Nc1cccc2nc(-c3cccc(N4CCc5ccccc5C4)c3)[nH]c12 | 25.9% | 4.8% | 13 ×10⁻⁶ cm/s | > 10 µM | 94.9% | – |
| Oc1ccc2nc(-c3cccc(N4CCc5ccccc5C4)n3)[nH]c2c1 | 45.6% | 7.5% | 13.8 ×10⁻⁶ cm/s | 3.8 µM | 98.8% | – |
